Where only a bound is given, the exact number is not on record here.

One may read the IC50 as the concentration at which inhibition is half-maximal.

For the test, the target named is T1, full length AKT E17K (Homo sapiens, UniProt P31749, E17K).
T1 construct: host or cells: HEK-293 (ATCC CRL-1573)
T1 sequence (P31749 whole entry E17K): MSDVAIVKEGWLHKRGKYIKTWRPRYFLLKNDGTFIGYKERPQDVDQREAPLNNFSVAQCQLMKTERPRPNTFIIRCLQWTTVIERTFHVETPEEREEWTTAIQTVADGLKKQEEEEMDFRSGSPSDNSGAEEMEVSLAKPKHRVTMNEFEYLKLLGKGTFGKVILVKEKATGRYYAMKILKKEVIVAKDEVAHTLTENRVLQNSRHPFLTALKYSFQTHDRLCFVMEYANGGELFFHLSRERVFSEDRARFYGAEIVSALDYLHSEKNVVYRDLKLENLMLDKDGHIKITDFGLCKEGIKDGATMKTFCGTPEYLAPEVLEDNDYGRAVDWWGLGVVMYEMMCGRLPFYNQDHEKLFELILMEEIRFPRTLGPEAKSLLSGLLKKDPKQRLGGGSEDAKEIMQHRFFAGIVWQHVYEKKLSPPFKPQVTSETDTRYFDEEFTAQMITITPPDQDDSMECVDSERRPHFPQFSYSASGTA
The test can be described thus: NanoBRET Target Engagement (TE) Assay. The class given is cell-based. As to conditions: competitive tracer displacement in living cells, read-out: AKT1 E17K IC50. In short, it runs like this: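 Compound and tracer incubated 2 h before luminescence at donor 450 nm and acceptor 600 nm, with extracellular signal inhibited. EC50 by sigmoidal variable-slope regression.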
On the technique in general: Bioluminescence resonance energy transfer reports proximity on the nanometre scale.
For `N#Cc1nccc(N2C[C@H]3C[C@@H]2CN3Cc2ccc(-n3c(-c4cccnc4N)nc4ccc(-c5ccccc5)nc43)cc2)n1` [Example 216, 4-((1R,4R)-5-(4-(2-(2-Aminopyridin-3-yl)-5-phenyl-3H-imidazo[4,5-b]pyridin-3-yl)benzyl)-2,5-diazabicyclo[2.2.1]heptan-2-yl)pyrimidine-2-carbonitrile], the IC50 is < 15 nM. On to `N#Cc1ccnc(N2C[C@H]3C[C@@H]2CN3Cc2ccc(-n3c(-c4cccnc4N)nc4ccc(-c5ccccc5)nc43)cc2)n1` [Example 217, 2-((1R,4R)-5-(4-(2-(2-Aminopyridin-3-yl)-5-phenyl-3H-imidazo[4,5-b]pyridin-3-yl)benzyl)-2,5-diazabicyclo[2.2.1]heptan-2-yl)pyrimidine-4-carbonitrile], for which the IC50 is 15 to 60 nM.

As to `N#Cc1cc(N2C[C@H]3C[C@@H]2CN3Cc2ccc(-n3c(-c4cccnc4N)nc4ccc(-c5ccccc5)nc43)cc2)ncn1` [Example 218, 6-((1R,4R)-5-(4-(2-(2-Aminopyridin-3-yl)-5-phenyl-3H-imidazo[4,5-b]pyridin-3-yl)benzyl)-2,5-diazabicyclo[2.2.1]heptan-2-yl)pyrimidine-4-carbonitrile], the IC50 lay in the range of 15 to 60 nM. For `N#Cc1nccc(N2CC3CCC2CN3Cc2ccc(-n3c(-c4cccnc4N)nc4ccc(-c5ccccc5)nc43)cc2)n1` (stereo not shown) [Example 219, 4-(5-(4-(2-(2-Aminopyridin-3-yl)-5-phenyl-3H-imidazo[4,5-b]pyridin-3-yl)benzyl)-2,5-diazabicyclo[2.2.2]octan-2-yl)pyrimidine-2-carbonitrile] the value was < 15 nM. For `N#Cc1ccnc(N2CC3CCC2CN3Cc2ccc(-n3c(-c4cccnc4N)nc4ccc(-c5ccccc5)nc43)cc2)n1` (stereo not shown) [Example 220, 2-(5-(4-(2-(2-Aminopyridin-3-yl)-5-phenyl-3H-imidazo[4,5-b]pyridin-3-yl)benzyl)-2,5-diazabicyclo[2.2.2]octan-2-yl)pyrimidine-4-carbonitrile] the value was 60 to 600 nM; for `N#Cc1cc(N2CC3CCC2CN3Cc2ccc(-n3c(-c4cccnc4N)nc4ccc(-c5ccccc5)nc43)cc2)ncn1` (stereo not shown) [Example 221, 6-(5-(4-(2-(2-Aminopyridin-3-yl)-5-phenyl-3H-imidazo[4,5-b]pyridin-3-yl)benzyl)-2,5-diazabicyclo[2.2.2]octan-2-yl)pyrimidine-4-carbonitrile], 60 to 600 nM.

As to `[2H]C([2H])(c1ccc(-n2c(-c3cccnc3N)nc3ccc(-c4ccccc4)nc32)cc1)N1CCC(Nc2ccnc(C#N)n2)CC1` [Example 222, 4-((1-((4-(2-(2-Aminopyridin-3-yl)-5-phenyl-3H-imidazo[4,5-h]pyridin-3-yl)phenyl)methyl-d2)piperidin-4-yl)amino)pyrimidine-2-carbonitrile], the IC50 is < 15 nM.

Consider `CN(c1ncnc(C#N)n1)C1CCN(Cc2ccc(-n3c(-c4cccnc4N)nc4ccc(-c5ccccc5)nc43)cc2)CC1` [Example 223, 4-((1-(4-(2-(2-aminopyridin-3-yl)-5-phenyl-3H-imidazo[4,5-b]pyridin-3-yl)benzyl)piperidin-4-yl)(methyl)amino)-1,3,5-triazine-2-carbonitrile], for which the IC50 was in the range of 15 to 60 nM. For `N#Cc1ncnc(N[C@H]2CCCN(Cc3ccc(-n4c(-c5cccnc5N)nc5ccc(-c6ccccc6)nc54)cc3)C2)n1` [Example 224, (S)-4-((1-(4-(2-(2-Aminopyridin-3-yl)-5-phenyl-3H-imidazo[4,5-b]pyridin-3-yl)benzyl)piperidin-3-yl)amino)-1,3,5-triazine-2-carbonitrile] the value was < 15 nM; for `C[C@@H]1CN(Cc2ccc(-n3c(-c4cccnc4N)nc4ccc(-c5ccccc5)nc43)cc2)CCN1c1ccnc(C#N)n1` [Example 225, (R)-4-(4-(4-(2-(2-aminopyridin-3-yl)-5-phenyl-3H-imidazo[4,5-b]pyridin-3-yl)benzyl)-2-methylpiperazin-1-yl)pyrimidine-2-carbonitrile], 60 to 600 nM; for `C[C@@H]1CN(Cc2ccc(-n3c(-c4cccnc4N)nc4ccc(-c5ccccc5)nc43)cc2)CCN1c1nccc(C#N)n1` [Example 226, (R)-2-(4-(4-(2-(2-Aminopyridin-3-yl)-5-phenyl-3H-imidazo[4,5-b]pyridin-3-yl)benzyl)-2-methylpiperazin-1-yl)pyrimidine-4-carbonitrile], 60 to 600 nM. The same measure for `C[C@@H]1CN(Cc2ccc(-n3c(-c4cccnc4N)nc4ccc(-c5ccccc5)nc43)cc2)CCN1c1cc(C#N)ncn1` [Example 227, (R)-6-(4-(4-(2-(2-Aminopyridin-3-yl)-5-phenyl-3H-imidazo[4,5-b]pyridin-3-yl)benzyl)-2-methylpiperazin-1-yl)pyrimidine-4-carbonitrile]: 60 to 600 nM. For `N#Cc1ccnc(N2CCCN(Cc3ccc(-n4c(-c5cccnc5N)nc5ccc(-c6ccccc6)nc54)cc3)CC2)n1` [Example 228, 2-(4-(4-(2-(2-Aminopyridin-3-yl)-5-phenyl-3H-imidazo[4,5-b]pyridin-3-yl)benzyl)-1,4-diazepan-1-yl)pyrimidine-4-carbonitrile] the value was 15 to 60 nM; for `N#Cc1nccc(C(=O)NC2C3CCC2CN(Cc2ccc(-n4c(-c5cccnc5N)nc5ccc(-c6ccccc6)nc54)cc2)C3)n1` (stereo not shown) [Example 229, N-(3-(4-(2-(2-aminopyridin-3-yl)-5-phenyl-3H-imidazo[4,5-b]pyridin-3-yl)benzyl)-3-azabicyclo[3.2.1]octan-8-yl)-2-cyanopyrimidine-4-carboxamide], 15 to 60 nM; for `N#Cc1cc(C(=O)NC2C3CCC2CN(Cc2ccc(-n4c(-c5cccnc5N)nc5ccc(-c6ccccc6)nc54)cc2)C3)ncn1` (stereo not shown) [Example 230, N-(3-(4-(2-(2-aminopyridin-3-yl)-5-phenyl-3H-imidazo[4,5-b]pyridin-3-yl)benzyl)-3-azabicyclo[3.2.1]octan-8-yl)-6-cyanopyrimidine-4-carboxamide], 60 to 600 nM. Consider `N#Cc1ccnc(NC2C3CCC2CN(Cc2ccc(-n4c(-c5cccnc5N)nc5ccc(-c6ccccc6)nc54)cc2)C3)n1` (stereo not shown) [Example 231, 2-((3-(4-(2-(2-Aminopyridin-3-yl)-5-phenyl-3H-imidazo[4,5-b]pyridin-3-yl)benzyl)-3-azabicyclo[3.2.1]octan-8-yl)amino)pyrimidine-4-carbonitrile], for which the IC50 was 600 to 10000 nM. Take `[2H]C([2H])([2H])N(c1ccnc(C#N)n1)C1CCN(Cc2ccc(-n3c(-c4cccnc4N)nc4ccc(-c5ccccc5)nc43)cc2)CC1` [Example 232, 4-((1-(4-(2-(2-Aminopyridin-3-yl)-5-phenyl-3H-imidazo[4,5-b]pyridin-3-yl)benzyl)piperidin-4-yl)(methyl-d3)amino)pyrimidine-2-carbonitrile]: the IC50 is < 15 nM. For `[2H]C([2H])([2H])N(c1ncnc(C#N)n1)C1CCN(Cc2ccc(-n3c(-c4cccnc4N)nc4ccc(-c5ccccc5)nc43)cc2)CC1` [Example 233, 4-((1-(4-(2-(2-Aminopyridin-3-yl)-5-phenyl-3H-imidazo[4,5-b]pyridin-3-yl)benzyl)piperidin-4-yl)(methyl-d3)amino)-1,3,5-triazine-2-carbonitrile] the value was 15 to 60 nM; for `[2H]C([2H])([2H])N(C(=O)c1ccnc(C#N)n1)C1CCN(Cc2ccc(-n3c(-c4cccnc4N)nc4ccc(-c5ccccc5)nc43)cc2)CC1` [Example 234, N-(1-(4-(2-(2-aminopyridin-3-yl)-5-phenyl-3H-imidazo[4,5-b]pyridin-3-yl)benzyl)piperidin-4-yl)-2-cyano-N-(methyl-d3)pyrimidine-4-carboxamide], < 15 nM.

For the origin of these results see patent US12209087B2, “AKT1 modulators” (Alterome Therapeutics, Inc., priority 2022, dated 2025).
